Assay results: US12083133B2, “Use of cholecalciferol as adjuvant in the treatment of muscular dystrophies” (ABIOGEN PHARMA SPA, priority 2021, dated 2024)
“Also recorded” adds a separate entry of the source.

Assays:
[1] = test system: Duchenne dystrophy; settings: state of the art; optimal dose 0.75 mg/kg per day; cited from earlier work
[2] = test system: muscular dystrophies; settings: state of the art; cited from earlier work
[3] = test system: mdx mice; experiment: Four limb hang test; format: in vivo, mouse
Description: For the study, it was chosen as experimental model the mdx (Muscular Dystrophy X-linked) mouse, which has long been used to evaluate the efficacy of drugs against muscular dystrophy and other degenerative diseases that affect skeletal muscles, inducing functional loss. These mice represent the reference animal model for clinical projections, also because they made it possible to overcome the obstacle of the limited availability of human biopsy material for experimental purposes.
The model responds to both steroidal and non-steroidal anti-inflammatory and immunosuppressive treatments and it is also used to study the differential gene and protein expression induced by the various treatments. The test system altogether consisted in 50 C57BL/10ScSn-Dmdxdx/J male mice and 27 C57/BL male mice of about 4-5 weeks of age.
After a short pre-housing period (about 4 days after arrival in the animal enclosure), the animals were subjected to baseline behavioural analyses, as described hereafter. The start time of the analyses, after the pre-housing period, is defined zero time (t=0).
Mice were also subjected to physical exercise with a rotating treadmill (Ugo Basile, Milan) for 15 minutes twice a week at a speed of 12 m/min, to standardize the pathology.
This test was performed at the beginning and at the end of the trial (baseline and final). It is performed using a device that uses a steel grid to measure the mouse's ability to support itself on all four limbs, opposing the force of gravity. The animal is placed on the grid (40×40 cm, delimited by iron strips placed perpendicular to the grid and 5 cm high, with 1 cm squares formed by 1 mm diameter steel wire) which is inverted so that the animal finds itself upside down and hangs on with its paws, about 30 cm from the floor. […] The grid is kept in position for a maximum of 5 minutes and the time, in seconds, during which the animal is able to hang with its paws is recorded.
The results of test are shown in the following table 2 and are expressed in seconds and normalized for the animal's weight. Groups 1-8 reported herein are those described in table 1.

[4] = test system: muscle tissue of mdx mice; experiment: Histopathologic analyses of muscle tissue (haematoxylin-eosin), graded 0 (absent) to 3 (very high); format: in vivo, mouse
Description: These analyses were performed on the material taken during necropsy performed after the sacrifice of the animals of groups 7 and 8. In particular, the quadriceps femoris, the diaphragm and the anterior tibial muscle were collected.
The samples taken and fixed were decalcified, embedded in paraffin according to the known technique, cut into 5-7 μm thick sections and stained with haematoxylin-eosin. The following forms of alteration were evaluated at the muscle tissue level, each of which was classified according to a grade from 0 (absent) to 3 (very high): • Atrophy • Degeneration • Inflammation • Oedema • Presence of adipose tissue • Hypertrophy • Regeneration • Mineralization Results

[5] = test system: Pax7; experiment: Immunohistochemistry with anti-Pax7 antibody (satellite cells); format: in vivo, mouse
Description: (§1) Skeletal muscle growth and regeneration are attributable to satellite cells, which are stem cells resident in the basal lamina surrounding each myofiber. The expression of Pax7 (Paired-Box Transcription Factor 7) is constitutive, that is, this factor is expressed in these cells both in the quiescent and in the activation phase. When satellite cells are activated, they also co-express MyoD, which correlates with active muscle regeneration.
(§2) The expression of Pax7 was then analysed for the identification of satellite cells (progenitors) located under the basal lamina of myofibers, and of MyoD, expressed by myoblasts during proliferation.
(§3) Analyses were performed on the groups after 24 weeks of treatment.
(§4) Samples for immunohistochemistry were included in OCT, placed in isopentane, frozen with liquid nitrogen and kept at −80° C. Anti-Pax7 antibodies were used to label satellite cells and anti-MyoD for myoblasts.

[6] = test system: MyoD; experiment: Immunohistochemistry with anti-MyoD antibody (proliferating myoblasts); format: in vivo, mouse; settings: mdx mice, 24 weeks of treatment
Description: as §1, §2, §3, §4

[7] = test system: muscle fibres of mdx mice; experiment: Fluorescence microscopy of muscle fibres (DAPI, anti-WGA); format: in vivo, mouse; settings: 12 weeks of treatment, versus untreated control mdx mice
Description: In fluorescence microscopy analyses DAPI staining (blue) was used for nuclei, while an anti-WGA antibody (WGA, or wheat germ agglutinin, Alexa Fluor® 594 conjugate), which stains cell membranes in red, was used to mark muscle fibres.

[8] = cited from earlier work
[9] = group 8, mdx mice, 175 μg/kg/day once a week, t = 24 weeks, grade 0 to 3

Molecule: C[C@]12C=CC(=O)C=C1CC[C@@H]1[C@@H]2C(=O)C[C@@]2(C)[C@H]1CC[C@]2(O)C(=O)CO [prednisone]
- Delay of the progression time of Duchenne dystrophy [1]: more than 3 years

Molecule: C[C@]12CC[C@H]3[C@@H](CCC4=CC(=O)CC[C@@]43C)[C@@H]1CC[C@@H]2O [testosterone]
- Efficacy as therapy of muscular dystrophies [2]: ineffective

Molecule: vitamin E
- Efficacy as therapy of muscular dystrophies [2]: ineffective

Molecule: C=C1CC[C@H](O)C/C1=C/C=C1\CCC[C@]2(C)[C@@H]([C@H](C)CCCC(C)C)CC[C@@H]12 [cholecalciferol]
- Time in seconds (normalized for the animal's weight) t = 12 weeks ([3]; group 5, mdx mice, 175 μg/kg/day (7000 IU/day) per os once per week for 12 weeks): 0.8 s
- Time in seconds (normalized for the animal's weight) t = 0 ([3]; group 5, mdx mice, baseline before treatment (12-week arm)): 0.9 s
- Time in seconds (normalized for the animal's weight) t = 24 weeks ([3]; group 8, mdx mice, 175 μg/kg/day (7000 IU/day) per os once per week for 24 weeks): 0.9 s
- Time in seconds (normalized for the animal's weight) t = 12 weeks ([3]; group 8, mdx mice, 175 μg/kg/day (7000 IU/day) per os once per week, 24-week arm): 1.2 s
- Time in seconds (normalized for the animal's weight) t = 0 ([3]; group 8, mdx mice, baseline before treatment (24-week arm)): 1.7 s
- Increase in resistance to detachment from the grid, in terms of time, versus untreated mdx animals ([3]; mdx mice, test at 24 weeks): 80%
- Medium Grading: Atrophy ([4]; group 8, mdx mice, 175 μg/kg/day once a week, t = 24 weeks, grade 0 (absent) to 3 (very high)): 0.44
- Medium Grading: Degeneration [4, 9]: 0
- Medium Grading: Hypertrophy [4, 9]: 2.11
- Medium Grading: Inflammation [4, 9]: 0
- Medium Grading: Mineralization [4, 9]: 0.33
- Medium Grading: Oedema [4, 9]: 0.44
- Medium Grading: Presence of adipose tissue [4, 9]: 0.11
- Medium Grading: Regeneration [4, 9]: 2.66
- Microscopic examination of muscle tissue stained with haematoxylin-eosin (in words) ([4]; mdx mice treated for 24 weeks): areas of regeneration and hypertrophy, and only in few cases muscular atrophy, moreover at low levels
- Positivity of muscle tissue for anti-Pax7 antibody (marker of satellite cells) ([5]; mdx mice treated with cholecalciferol): highly positive
- Labelling with anti-Pax7 antibody (satellite cells) ([5]; mdx mice, 24 weeks of treatment, versus vehicle-treated mdx mice): clearly present and localized on the contours of the muscle fibres; also recorded: more evident
- Labelling with anti-MyoD antibody / expression of MyoD [6]: appears extensive; also recorded: restored the expression of MyoD to levels similar to those of wild-type mice
- Structure of muscle fibres and position of cell nuclei [7]: cell nuclei distributed both centrally and peripherally and less disrupted muscle fibres; also recorded: visibly less disrupted
- Blood half-life (T1/2) ([8]; estimated): 19 to 25 h
- Functional half-life ([8]; related to slow release from adipose tissue): several weeks

Molecule: CC(C)(S)[C@@H](N)C(=O)O [penicillamine]
- Efficacy as therapy of muscular dystrophies [2]: ineffective
